Experimental data published in the supplement of paper PMC10307832.

What was measured:
Assay in all cases: relative viability (nuclei count vs DMSO), 5 days (fraction); higher = more cells survive
ABC-1 = system: ABC-1
Summary of the method: (§1)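 Five library-drug doses in √10 steps were combined with a fixed anchor-drug dose, or a single drug was given alone, by pin tool to lung cancer cell lines in 1536-well plates the day after seeding. Nuclei were stained and counted after 5 days. Relative viability is the nuclei count in treated wells over that in vehicle wells, taken as the median of duplicate plates.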

CAL-12T = system: CAL-12T
Summary of the method: as §1

COR-L 105 = system: COR-L 105
Summary of the method: as §1

ChaGo-K-1 = system: ChaGo-K-1
Summary of the method: as §1

EMC-BAC-2 = system: EMC-BAC-2
Summary of the method: as §1

EPLC-272H = system: EPLC-272H
Summary of the method: as §1

HCC-15 = system: HCC-15
Summary of the method: as §1

HCC-78 = system: HCC-78
Summary of the method: as §1

HOP-62 = system: HOP-62
Summary of the method: as §1

LXF-289 = system: LXF-289
Summary of the method: as §1

NCI-H1666 = system: NCI-H1666
Summary of the method: as §1

NCI-H1755 = system: NCI-H1755
Summary of the method: as §1

NCI-H1915 = system: NCI-H1915
Summary of the method: as §1

NCI-H1975 = system: NCI-H1975
Summary of the method: as §1

NCI-H2023 = system: NCI-H2023
Summary of the method: as §1

NCI-H2085 = system: NCI-H2085
Summary of the method: as §1

NCI-H2126 = system: NCI-H2126
Summary of the method: as §1

NCI-H3122 = system: NCI-H3122
Summary of the method: as §1

NCI-H322M = system: NCI-H322M
Summary of the method: as §1

NCI-H358 = system: NCI-H358
Summary of the method: as §1

NCI-H441 = system: NCI-H441
Summary of the method: as §1

UMC-11 = system: UMC-11
Summary of the method: as §1

## CCN(CC)CCCCNc1ncc2cc(-c3cc(OC)cc(OC)c3)c(NC(=O)NC(C)(C)C)nc2n1 + COc1cccc2cc(-c3nc([C@H]4CC[C@H](C(=O)O)CC4)n4ncnc(N)c34)[nH]c12 [OSI-027] (partner 0.5 µM)
ABC-1; first compound 0.01 µM
  relative viability: 0.433
ABC-1; first compound 0.03162 µM
  relative viability: 0.389
ABC-1; first compound 0.1 µM
  relative viability: 0.55
ABC-1; first compound 0.3162 µM
  relative viability: 0.499
ABC-1; first compound 1 µM
  relative viability: 0.402
CAL-12T; first compound 0.01 µM
  relative viability: 0.623
CAL-12T; first compound 0.03162 µM
  relative viability: 0.736
CAL-12T; first compound 0.1 µM
  relative viability: 0.789
CAL-12T; first compound 0.3162 µM
  relative viability: 0.836
CAL-12T; first compound 1 µM
  relative viability: 0.576
COR-L 105; first compound 0.01 µM
  relative viability: 0.704
COR-L 105; first compound 0.03162 µM
  relative viability: 0.591
COR-L 105; first compound 0.1 µM
  relative viability: 0.749
COR-L 105; first compound 0.3162 µM
  relative viability: 0.826
COR-L 105; first compound 1 µM
  relative viability: 0.417
ChaGo-K-1; first compound 0.01 µM
  relative viability: 0.618
ChaGo-K-1; first compound 0.03162 µM
  relative viability: 0.671
ChaGo-K-1; first compound 0.1 µM
  relative viability: 0.619
ChaGo-K-1; first compound 0.3162 µM
  relative viability: 0.559
ChaGo-K-1; first compound 1 µM
  relative viability: 0.513
EMC-BAC-2; first compound 0.01 µM
  relative viability: 0.38
EMC-BAC-2; first compound 0.03162 µM
  relative viability: 0.399
EMC-BAC-2; first compound 0.1 µM
  relative viability: 0.398
EMC-BAC-2; first compound 0.3162 µM
  relative viability: 0.471
EMC-BAC-2; first compound 1 µM
  relative viability: 0.358
EPLC-272H; first compound 0.01 µM
  relative viability: 0.272
EPLC-272H; first compound 0.03162 µM
  relative viability: 0.281
EPLC-272H; first compound 0.1 µM
  relative viability: 0.234
EPLC-272H; first compound 0.3162 µM
  relative viability: 0.28
EPLC-272H; first compound 1 µM
  relative viability: 0.301
HCC-15; first compound 0.01 µM
  relative viability: 0.662
HCC-15; first compound 0.03162 µM
  relative viability: 0.673
HCC-15; first compound 0.1 µM
  relative viability: 0.717
HCC-15; first compound 0.3162 µM
  relative viability: 0.936
HCC-15; first compound 1 µM
  relative viability: 0.577
HCC-78; first compound 0.01 µM
  relative viability: 0.36
HCC-78; first compound 0.03162 µM
  relative viability: 0.381
HCC-78; first compound 0.1 µM
  relative viability: 0.468
HCC-78; first compound 0.3162 µM
  relative viability: 0.349
HCC-78; first compound 1 µM
  relative viability: 0.357
HOP-62; first compound 0.01 µM
  relative viability: 0.89
HOP-62; first compound 0.03162 µM
  relative viability: 0.873
HOP-62; first compound 0.1 µM
  relative viability: 1.12
HOP-62; first compound 0.3162 µM
  relative viability: 1.11
HOP-62; first compound 1 µM
  relative viability: 0.771
LXF-289; first compound 0.01 µM
  relative viability: 0.825
LXF-289; first compound 0.03162 µM
  relative viability: 0.823
LXF-289; first compound 0.1 µM
  relative viability: 0.973
LXF-289; first compound 0.3162 µM
  relative viability: 0.812
LXF-289; first compound 1 µM
  relative viability: 0.715
NCI-H1666; first compound 0.01 µM
  relative viability: 0.896
NCI-H1666; first compound 0.03162 µM
  relative viability: 0.877
NCI-H1666; first compound 0.1 µM
  relative viability: 0.817
NCI-H1666; first compound 0.3162 µM
  relative viability: 1.08
NCI-H1666; first compound 1 µM
  relative viability: 0.851
NCI-H1755; first compound 0.01 µM
  relative viability: 0.625
NCI-H1755; first compound 0.03162 µM
  relative viability: 0.77
NCI-H1755; first compound 0.1 µM
  relative viability: 0.811
NCI-H1755; first compound 0.3162 µM
  relative viability: 0.799
NCI-H1755; first compound 1 µM
  relative viability: 0.707
NCI-H1915; first compound 0.01 µM
  relative viability: 0.377
NCI-H1915; first compound 0.03162 µM
  relative viability: 0.645
NCI-H1915; first compound 0.1 µM
  relative viability: 0.775
NCI-H1915; first compound 0.3162 µM
  relative viability: 0.721
NCI-H1915; first compound 1 µM
  relative viability: 0.643
NCI-H1975; first compound 0.01 µM
  relative viability: 0.86
NCI-H1975; first compound 0.03162 µM
  relative viability: 0.822
NCI-H1975; first compound 0.1 µM
  relative viability: 0.802
NCI-H1975; first compound 0.3162 µM
  relative viability: 0.949
NCI-H1975; first compound 1 µM
  relative viability: 0.559
NCI-H2023; first compound 0.01 µM
  relative viability: 0.426
NCI-H2023; first compound 0.03162 µM
  relative viability: 0.452
NCI-H2023; first compound 0.1 µM
  relative viability: 0.518
NCI-H2023; first compound 0.3162 µM
  relative viability: 0.486
NCI-H2023; first compound 1 µM
  relative viability: 0.359
NCI-H2085; first compound 0.01 µM
  relative viability: 0.71
NCI-H2085; first compound 0.03162 µM
  relative viability: 0.759
NCI-H2085; first compound 0.1 µM
  relative viability: 0.867
NCI-H2085; first compound 0.3162 µM
  relative viability: 0.803
NCI-H2085; first compound 1 µM
  relative viability: 0.725
NCI-H2126; first compound 0.01 µM
  relative viability: 0.583
NCI-H2126; first compound 0.03162 µM
  relative viability: 0.768
NCI-H2126; first compound 0.1 µM
  relative viability: 0.704
NCI-H2126; first compound 0.3162 µM
  relative viability: 0.756
NCI-H2126; first compound 1 µM
  relative viability: 0.707
NCI-H3122; first compound 0.01 µM
  relative viability: 1.06
NCI-H3122; first compound 0.03162 µM
  relative viability: 1.02
NCI-H3122; first compound 0.1 µM
  relative viability: 1.15
NCI-H3122; first compound 0.3162 µM
  relative viability: 1.3
NCI-H3122; first compound 1 µM
  relative viability: 0.922
NCI-H322M; first compound 0.01 µM
  relative viability: 0.481
NCI-H322M; first compound 0.03162 µM
  relative viability: 0.525
NCI-H322M; first compound 0.1 µM
  relative viability: 0.531
NCI-H322M; first compound 0.3162 µM
  relative viability: 0.594
NCI-H322M; first compound 1 µM
  relative viability: 0.552
NCI-H358; first compound 0.01 µM
  relative viability: 0.791
NCI-H358; first compound 0.03162 µM
  relative viability: 0.803
NCI-H358; first compound 0.1 µM
  relative viability: 1.12
NCI-H358; first compound 0.3162 µM
  relative viability: 0.996
NCI-H358; first compound 1 µM
  relative viability: 0.694
NCI-H441; first compound 0.01 µM
  relative viability: 0.56
NCI-H441; first compound 0.03162 µM
  relative viability: 0.669
NCI-H441; first compound 0.1 µM
  relative viability: 0.638
NCI-H441; first compound 0.3162 µM
  relative viability: 0.689
NCI-H441; first compound 1 µM
  relative viability: 0.623
UMC-11; first compound 0.01 µM
  relative viability: 0.508
UMC-11; first compound 0.03162 µM
  relative viability: 0.473
UMC-11; first compound 0.1 µM
  relative viability: 0.481
UMC-11; first compound 0.3162 µM
  relative viability: 0.485
UMC-11; first compound 1 µM
  relative viability: 0.443
